Assay results taken from the supplement of paper PMC10307832.

How the values were obtained:
Assay in all cases: relative viability (nuclei count vs DMSO), 5 days (fraction); higher = more cells survive
AGI-6780 + Navitoclax = compound: O=C(Nc1cccc(C(F)(F)F)c1)Nc1cc(S(=O)(=O)NC2CC2)ccc1-c1ccsc1 [AGI-6780] + CC1(C)CCC(c2ccc(Cl)cc2)=C(CN2CCN(c3ccc(C(=O)NS(=O)(=O)c4ccc(N[C@H](CCN5CCOCC5)CSc5ccccc5)c(S(=O)(=O)C(F)(F)F)c4)cc3)CC2)C1 [Navitoclax] (partner 0.5 µM)
Procedure, shortened: (§1)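 After 5 days of treatment, lung cancer cells in 1536-well plates were fixed and stained in a single step (final 0.05% Triton X-100, 1% formaldehyde, 1 ug/ml Hoechst) and their nuclei counted on 4× images. Treatment had been applied by pin tool the day after seeding as one drug alone or as a fixed anchor-drug dose with five library-drug doses (not always all listed) in √10 steps. Relative viability is the nuclei count of treated wells divided by that of vehicle wells, and values are medians of duplicate plates.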

AGI-6780 + Linsitinib = compound: O=C(Nc1cccc(C(F)(F)F)c1)Nc1cc(S(=O)(=O)NC2CC2)ccc1-c1ccsc1 [AGI-6780] + C[C@]1(O)C[C@@H](c2nc(-c3ccc4ccc(-c5ccccc5)nc4c3)c3c(N)nccn32)C1 [Linsitinib] (partner 1 µM)
Procedure, shortened: as §1

AGI-6780 + Pemetrexed = compound: O=C(Nc1cccc(C(F)(F)F)c1)Nc1cc(S(=O)(=O)NC2CC2)ccc1-c1ccsc1 [AGI-6780] + Nc1nc2[nH]cc(CCc3ccc(C(=O)N[C@@H](CCC(=O)O)C(=O)O)cc3)c2c(=O)[nH]1 [Pemetrexed] (partner 0.2 µM)
Procedure, shortened: as §1

AGI-6780 + Vorinostat = compound: O=C(Nc1cccc(C(F)(F)F)c1)Nc1cc(S(=O)(=O)NC2CC2)ccc1-c1ccsc1 [AGI-6780] + O=C(CCCCCCC(=O)Nc1ccccc1)NO [Vorinostat] (partner 1 µM)
Procedure, shortened: as §1

Cell Line: PC-3 [JPC-3]
- relative viability (AGI-6780 + Navitoclax; first compound 0.08 µM): 0.898
- relative viability (AGI-6780 + Navitoclax; first compound 0.253 µM): 0.872
- relative viability (AGI-6780 + Navitoclax; first compound 0.8 µM): 0.77
- relative viability (AGI-6780 + Navitoclax; first compound 2.53 µM): 0.752
- relative viability (AGI-6780 + Navitoclax; first compound 8 µM): 0.774
- relative viability (AGI-6780 + Linsitinib; first compound 0.08 µM): 0.995
- relative viability (AGI-6780 + Linsitinib; first compound 0.253 µM): 0.952
- relative viability (AGI-6780 + Linsitinib; first compound 0.8 µM): 0.904
- relative viability (AGI-6780 + Linsitinib; first compound 2.53 µM): 0.926
- relative viability (AGI-6780 + Linsitinib; first compound 8 µM): 0.953
- relative viability (AGI-6780 + Pemetrexed; first compound 0.253 µM): 1.08
- relative viability (AGI-6780 + Pemetrexed; first compound 0.8 µM): 1.26
- relative viability (AGI-6780 + Pemetrexed; first compound 2.53 µM): 1.19
- relative viability (AGI-6780 + Pemetrexed; first compound 8 µM): 0.987
- relative viability (AGI-6780 + Vorinostat; first compound 0.253 µM): 0.866
- relative viability (AGI-6780 + Vorinostat; first compound 0.8 µM): 1.08
- relative viability (AGI-6780 + Vorinostat; first compound 2.53 µM): 0.967
- relative viability (AGI-6780 + Vorinostat; first compound 8 µM): 0.731

Cell Line: PC-14
- relative viability (AGI-6780 + Navitoclax; first compound 0.08 µM): 1.06
- relative viability (AGI-6780 + Navitoclax; first compound 0.253 µM): 0.967
- relative viability (AGI-6780 + Navitoclax; first compound 0.8 µM): 0.849
- relative viability (AGI-6780 + Navitoclax; first compound 2.53 µM): 1.01
- relative viability (AGI-6780 + Navitoclax; first compound 8 µM): 0.952
- relative viability (AGI-6780 + Linsitinib; first compound 0.08 µM): 0.983
- relative viability (AGI-6780 + Linsitinib; first compound 0.253 µM): 0.925
- relative viability (AGI-6780 + Linsitinib; first compound 0.8 µM): 0.832
- relative viability (AGI-6780 + Linsitinib; first compound 2.53 µM): 0.903
- relative viability (AGI-6780 + Linsitinib; first compound 8 µM): 0.937
- relative viability (AGI-6780 + Pemetrexed; first compound 0.08 µM): 0.143
- relative viability (AGI-6780 + Pemetrexed; first compound 0.253 µM): 0.147
- relative viability (AGI-6780 + Pemetrexed; first compound 0.8 µM): 0.141
- relative viability (AGI-6780 + Pemetrexed; first compound 2.53 µM): 0.16
- relative viability (AGI-6780 + Pemetrexed; first compound 8 µM): 0.134
- relative viability (AGI-6780 + Vorinostat; first compound 0.08 µM): 0.919
- relative viability (AGI-6780 + Vorinostat; first compound 0.253 µM): 0.708
- relative viability (AGI-6780 + Vorinostat; first compound 0.8 µM): 0.845
- relative viability (AGI-6780 + Vorinostat; first compound 2.53 µM): 0.779
- relative viability (AGI-6780 + Vorinostat; first compound 8 µM): 0.799

Cell Line: RERF-LC-KJ
- relative viability (AGI-6780 + Navitoclax; first compound 0.08 µM): 1.18
- relative viability (AGI-6780 + Navitoclax; first compound 0.253 µM): 1.08
- relative viability (AGI-6780 + Navitoclax; first compound 0.8 µM): 1.16
- relative viability (AGI-6780 + Navitoclax; first compound 2.53 µM): 0.834
- relative viability (AGI-6780 + Navitoclax; first compound 8 µM): 0.911
- relative viability (AGI-6780 + Linsitinib; first compound 0.08 µM): 0.863
- relative viability (AGI-6780 + Linsitinib; first compound 0.253 µM): 1
- relative viability (AGI-6780 + Linsitinib; first compound 0.8 µM): 0.837
- relative viability (AGI-6780 + Linsitinib; first compound 2.53 µM): 0.822
- relative viability (AGI-6780 + Linsitinib; first compound 8 µM): 0.845
- relative viability (AGI-6780 + Pemetrexed; first compound 0.08 µM): 0.497
- relative viability (AGI-6780 + Pemetrexed; first compound 0.253 µM): 0.466
- relative viability (AGI-6780 + Pemetrexed; first compound 0.8 µM): 0.469
- relative viability (AGI-6780 + Pemetrexed; first compound 2.53 µM): 0.497
- relative viability (AGI-6780 + Pemetrexed; first compound 8 µM): 0.466
- relative viability (AGI-6780 + Vorinostat; first compound 0.08 µM): 0.784
- relative viability (AGI-6780 + Vorinostat; first compound 0.253 µM): 0.724
- relative viability (AGI-6780 + Vorinostat; first compound 0.8 µM): 0.795
- relative viability (AGI-6780 + Vorinostat; first compound 2.53 µM): 0.596
- relative viability (AGI-6780 + Vorinostat; first compound 8 µM): 0.697

Cell Line: SK-LU-1
- relative viability (AGI-6780 + Navitoclax; first compound 0.08 µM): 0.904
- relative viability (AGI-6780 + Navitoclax; first compound 0.253 µM): 0.961
- relative viability (AGI-6780 + Navitoclax; first compound 0.8 µM): 0.418
- relative viability (AGI-6780 + Navitoclax; first compound 2.53 µM): 0.851
- relative viability (AGI-6780 + Navitoclax; first compound 8 µM): 0.955
- relative viability (AGI-6780 + Linsitinib; first compound 0.08 µM): 1.11
- relative viability (AGI-6780 + Linsitinib; first compound 0.253 µM): 0.976
- relative viability (AGI-6780 + Linsitinib; first compound 0.8 µM): 0.76
- relative viability (AGI-6780 + Linsitinib; first compound 2.53 µM): 0.917
- relative viability (AGI-6780 + Linsitinib; first compound 8 µM): 1.16
- relative viability (AGI-6780 + Pemetrexed; first compound 0.08 µM): 0.981
- relative viability (AGI-6780 + Pemetrexed; first compound 0.253 µM): 0.93
- relative viability (AGI-6780 + Pemetrexed; first compound 0.8 µM): 0.765
- relative viability (AGI-6780 + Pemetrexed; first compound 2.53 µM): 0.984
- relative viability (AGI-6780 + Pemetrexed; first compound 8 µM): 1.11
- relative viability (AGI-6780 + Vorinostat; first compound 0.08 µM): 0.816
- relative viability (AGI-6780 + Vorinostat; first compound 0.253 µM): 0.798
- relative viability (AGI-6780 + Vorinostat; first compound 0.8 µM): 0.534
- relative viability (AGI-6780 + Vorinostat; first compound 2.53 µM): 0.732
- relative viability (AGI-6780 + Vorinostat; first compound 8 µM): 0.786

Cell Line: SK-MES-1
- relative viability (AGI-6780 + Navitoclax; first compound 0.08 µM): 1.31
- relative viability (AGI-6780 + Navitoclax; first compound 0.253 µM): 1.22
- relative viability (AGI-6780 + Navitoclax; first compound 0.8 µM): 1.09
- relative viability (AGI-6780 + Navitoclax; first compound 2.53 µM): 1.21
- relative viability (AGI-6780 + Navitoclax; first compound 8 µM): 1.28
- relative viability (AGI-6780 + Linsitinib; first compound 0.08 µM): 1.08
- relative viability (AGI-6780 + Linsitinib; first compound 0.253 µM): 1.06
- relative viability (AGI-6780 + Linsitinib; first compound 0.8 µM): 0.92
- relative viability (AGI-6780 + Linsitinib; first compound 2.53 µM): 0.984
- relative viability (AGI-6780 + Linsitinib; first compound 8 µM): 1.09
- relative viability (AGI-6780 + Pemetrexed; first compound 0.08 µM): 0.991
- relative viability (AGI-6780 + Pemetrexed; first compound 0.253 µM): 0.929
- relative viability (AGI-6780 + Pemetrexed; first compound 0.8 µM): 0.836
- relative viability (AGI-6780 + Pemetrexed; first compound 2.53 µM): 0.985
- relative viability (AGI-6780 + Pemetrexed; first compound 8 µM): 0.929
- relative viability (AGI-6780 + Vorinostat; first compound 0.08 µM): 1.21
- relative viability (AGI-6780 + Vorinostat; first compound 0.253 µM): 1.17
- relative viability (AGI-6780 + Vorinostat; first compound 0.8 µM): 1
- relative viability (AGI-6780 + Vorinostat; first compound 2.53 µM): 1.03
- relative viability (AGI-6780 + Vorinostat; first compound 8 µM): 0.994

Cell Line: SW 1573
- relative viability (AGI-6780 + Navitoclax; first compound 0.08 µM): 1.21
- relative viability (AGI-6780 + Navitoclax; first compound 0.253 µM): 1.07
- relative viability (AGI-6780 + Navitoclax; first compound 0.8 µM): 1.14
- relative viability (AGI-6780 + Navitoclax; first compound 2.53 µM): 0.973
- relative viability (AGI-6780 + Navitoclax; first compound 8 µM): 1.14
- relative viability (AGI-6780 + Linsitinib; first compound 0.08 µM): 0.818
- relative viability (AGI-6780 + Linsitinib; first compound 0.253 µM): 0.911
- relative viability (AGI-6780 + Linsitinib; first compound 0.8 µM): 0.868
- relative viability (AGI-6780 + Linsitinib; first compound 2.53 µM): 0.652
- relative viability (AGI-6780 + Linsitinib; first compound 8 µM): 0.831
- relative viability (AGI-6780 + Pemetrexed; first compound 0.08 µM): 0.866
- relative viability (AGI-6780 + Pemetrexed; first compound 0.253 µM): 0.787
- relative viability (AGI-6780 + Pemetrexed; first compound 0.8 µM): 0.921
- relative viability (AGI-6780 + Pemetrexed; first compound 8 µM): 0.874
- relative viability (AGI-6780 + Vorinostat; first compound 0.08 µM): 0.792
- relative viability (AGI-6780 + Vorinostat; first compound 0.253 µM): 0.75
- relative viability (AGI-6780 + Vorinostat; first compound 0.8 µM): 0.999
- relative viability (AGI-6780 + Vorinostat; first compound 8 µM): 0.972

Cell Line: UMC-11
- relative viability (AGI-6780 + Navitoclax; first compound 0.08 µM): 0.318
- relative viability (AGI-6780 + Navitoclax; first compound 0.253 µM): 0.372
- relative viability (AGI-6780 + Navitoclax; first compound 0.8 µM): 0.348
- relative viability (AGI-6780 + Navitoclax; first compound 8 µM): 0.399
- relative viability (AGI-6780 + Linsitinib; first compound 0.08 µM): 0.868
- relative viability (AGI-6780 + Linsitinib; first compound 0.253 µM): 0.968
- relative viability (AGI-6780 + Linsitinib; first compound 0.8 µM): 1.08
- relative viability (AGI-6780 + Linsitinib; first compound 8 µM): 0.987
- relative viability (AGI-6780 + Pemetrexed; first compound 0.08 µM): 0.793
- relative viability (AGI-6780 + Pemetrexed; first compound 0.253 µM): 0.809
- relative viability (AGI-6780 + Pemetrexed; first compound 0.8 µM): 0.816
- relative viability (AGI-6780 + Pemetrexed; first compound 8 µM): 0.868
- relative viability (AGI-6780 + Vorinostat; first compound 0.08 µM): 0.407
- relative viability (AGI-6780 + Vorinostat; first compound 0.253 µM): 0.426
- relative viability (AGI-6780 + Vorinostat; first compound 0.8 µM): 0.447
- relative viability (AGI-6780 + Vorinostat; first compound 8 µM): 0.434
